# Results from patent US7750181B2, “Antiproliferative agents” (EPX Research Limited, priority 2002, dated 2010).
# Several values for one entry are separate records, joined by “and”; a condition that tells them apart may be missing. Equal values may be shown once.
# Columns and labels:
# [1] = test system: H460 non-small cell lung cancer human xenograft; test: Antitumour test, H460 NSCLC human xenograft; assay type: in vivo, Nu nude mice; details: 500 mg/kg, i.p. days 0-4
# Method: (§1) Fragments of the non-small cell lung cancer, H460, and DLD-1 colon cancer human xenografts were transplanted sub-cutaneously in both flanks of 14 female Nu nude mice from an inbred colony (B7K Universal, Hull, UK). Mice received CRM diet (SDS, WItham, UK) and water ad libitum. All experiments were carried out under a project license issued by the UK Home Office, and UKCCCR guidelines were followed throughout.
# (§2) Therapy commenced once tumours had grown to a sufficient size to be measured accurately (minimum 4 mm×4 mm), which was 10 days for H460 and 19 days for DLD-1. 10 tumours grew sufficiently to use in 7 mice for both the test and untreated groups.
# In the case of H460, the compound of Example 4 was administered at a concentration of 500 mg/kg body weight/day, intraperitoneally (i.p.), daily for 5 days (designated days 0-4). Animals were monitored daily for any toxicity effects, and tumours were measured, and weights recorded daily over the period of therapy and then on day 7 (untreated and test groups), and day 8 (test group). On day 7 for the untreated group, and day 8 for the test group, the largest tumour diameter was greater than the maximum permitted 17 mm, and subjects were then euthenised by UK Home Office Schedule 1 methods.
# (§3) In both cases tumour volumes were assessed by caliper measurements of 2 perpendicular diameters and the volumes estimated using the following equation: Volumes−(a^2×b)/2, where a is the smaller, and b the larger diameter of the two. The effects of the therapy were determined from the difference in tumour volume-doubling time between treated and control groups, and the significance of any tumour growth delay determined using the Mann-Whitney U Test.
# [2] = test system: MAC15 tumour, murine colon cancer; test: Tumour growth inhibition, MAC15 tumour transplanted s.c.; assay type: in vivo, NMRI mice; details: intraperitoneal; for Tumour weight: individual animals
# Method: (§4) Pure strain NMRI mice (age 6-8 weeks) from our inbred colony were used for transplanting MAC (murine colon cancer) tumours, M5076 reticulum cell sarcoma (ovarian) were transplanted in BDF1 mice purchased from Harlan, Bicester, U.K. Animals were fed on RM3E diet (Lillco-England) and water ad libitum.
# The tumour is routinely passaged as an ascites. Approximately 2×10^5 cells were transplanted subcutaneously in saline in a volume of 0.2 ml. Mice were randomised in groups of 5-7 animals per group. Untreated or vehicle controls were included. Treatment commenced two days after transplant. Body weight was recorded daily. The effects of chemotherapy were assessed between 7-9 days after transplant. Mice were killed and the effects measured by the differences in tumour weights and expressed as: % T/C, i.e. […] Body weight changes were recorded in order to assess toxicity.
# [3] = test system: DLD-1 colon cancer human xenograft; test: Antitumour test, DLD-1 colon cancer human xenograft; assay type: in vivo, Nu nude mice; details: 500 mg/kg, i.p. days 0-4
# Method: as §1, §2
# […], and assessing tumour growth compared to a control untreated group until the tumours have reached the maximum permitted size (day 16 control and tested group).
# as §3
# [4] = test system: MAC 13 tumour, murine colon cancer; test: Tumour growth inhibition, MAC 13 tumour transplanted s.c.; assay type: in vivo, NMRI mice; details: 400 mg/kg body weight, intraperitoneal, days of treatment 1-5
# Text: as §4
# (§5) Approximately 2×2 mm of MAC13 tumour fragments were transplanted subcutaneously in the inguinal region via a trocar while the M5076 was homogenised and 1×10^6 cells transplanted intramuscularly in the inguinal region. Tumour bearing mice were randomised in groups of 5-7 animals per group. Treatment commenced one day after transplant for M5076 and two days for MAC13. Untreated or vehicle controls were included. Daily weights were recorded. Chemotherapy effects were assessed on day 14 or thereabouts depending on the tumour sizes and condition of the animals. Mice were killed and the effects of the chemotherapy were assessed by the differences in tumour weights and expressed as: % T/C, i.e. inhibition=100-Treated weight/Control weight×100% Body weight changes were recorded in order to assess toxicity. MAC15A
# [5] = test system: M5076 tumour, ovarian cancer (reticulum cell sarcoma); test: Tumour growth inhibition, M5076 tumour transplanted i.m.; assay type: in vivo, BDF1 mice; details: 400 mg/kg body weight, intraperitoneal, days of treatment 1-11
# Text: as §4, §5
# [6] = RTV2 = relative tumour volume doubling
# [7] = 300 mg/kg body weight, days of treatment 1-5
# [8] = 400 mg/kg body weight, days of treatment 1-5
compound,measurement,setting,value
"CN1C(=O)C(Cl)=C(Cl)C(=O)C1O (centres unmarked) [Example 4, 3,4-dichloro-6-hydroxy-1-methyl-2,5-dioxo-1.6-dihydropyridine]",Maximum % weight loss,[1],6.9%
same,Median time RTV2,[1],6.4 days
same,Mean time to RTV2,[1]; [6],6.2 days
same,Growth delay,[1]; versus untreated controls,3.9 days
same,% Tumour growth inhibition,"[2]; 500 mg/kg body weight, day 1-5",86%
same,Mean tumour weight,"[2]; 500 mg/kg body weight, day 1-5",0.056 g
same,Tumour weight,"[2]; 500 mg/kg body weight, day 1-5, 500 mg/kg",0.076 g and 0.033 g and 0.0 g (3×) and 0.090 g and 0.060 g and 0.134 g and 0.114 g
same,Maximum % weight loss,[3],4.3%
same,Median time RTV2,[3],9.8 days
same,Mean time to RTV2,[3]; [6],9.9 days
same,Growth delay,[3]; versus untreated controls,6.7 days
"CN(C=O)C(=O)/C(Cl)=C(/Cl)C(=O)O [Example 3, (Z)-2,3-dichloro-4-[N-formyl-N-methylamino]-4-oxo-but-2-enoic acid]",% Tumour growth inhibition,[4],92%
same,Mean tumour weight,[4],0.031 g
same,Tumour weight,"[4]; individual animals, 400 mg/kg",0.053 g and 0.045 g and 0.030 g and 0.023 g and 0.0 g and 0.036 g
same,% Tumour growth inhibition,[2]; [7],68%
same,Mean tumour weight,[2]; [7],0.195 g
same,% Tumour growth inhibition,[2]; [8],81%
same,Mean tumour weight,[2]; [8],0.117 g
same,Tumour weight,"[2]; 300 mg/kg body weight, days of treatment 1-5, 300 mg/kg",0.194 g and 0.201 g and 0.190 g and 0.176 g and 0.214 g
same,Tumour weight,"[2]; 400 mg/kg body weight, days of treatment 1-5, 400 mg/kg",0.074 g and 0.094 g and 0.190 g and 0.096 g and 0.132 g
same,% Tumour growth inhibition,[5],97%
same,Mean tumour weight,[5],0.008 g
same,Tumour weight,"[5]; individual animals, 400 mg/kg",0 g (5×) and 0.052 g
